Measurements as given in EP4699605A1, “USE OF NOVEL COMPOUND FOR TREATING INTRACTABLE DISEASES” (YJ Cerapeutics Inc., priority 2023, dated 2024).

What was measured:
[1] = system: nerve injury animal models (SCI, LSS, SNI); test: Mechanical allodynia (von-Frey filaments, 50% paw withdrawal threshold) in nerve injury animal models; type: in vivo, Sprague-Dawley rats; details: intraperitoneal 5 mg/kg; at 1 hour after administration
Description: To be used as a central nerve injury animal model, a traumatic spinal cord injury (SCI) model was prepared (FIG. 1A). Specifically, 230 to 250 g of male adult Sprague-Dawley rats were anesthetized by intraperitoneal injection of chloral hydrate (500 mg/kg), and then the back and neck regions were shaved, and the spinal cord under the back and neck regions was exposed without damaging the dura mater, and a laminectomy was performed at T9 to T10 levels. To stabilize the spine, the spinous processes of T8 and T11 were fixed, and the spine was damaged by free-falling a 10 g weight from a height of 25 mm using an NYU impactor onto the back surface of the exposed spinal cord and then the rats were left in a temperature and humidity-controlled chamber overnight while covering the muscles and skin. After surgery, the rats were subcutaneously injected with a supplement solution (5 ml, lactated ringer) and injected with antibiotics (gentamicin, 5 mg/kg, intramuscular injection) once daily for 5 days. The body weight, remaining food, and the weight of water were confirmed and recorded for all animals, and the bladder was emptied twice daily by passive bladder massage until reflex micturition was established. At this time, a Sham group was a group that was subjected to only laminectomy without damage.
To be used as a peripheral nerve injury animal model, a lumbar spinal stenosis (LSS) model was prepared (FIG. 1B). Specifically, 260 to 280 g of adult male Sprague-Dawley rats were anesthetized with intraperitoneal injection of chloral hydrate (500 mg/kg), the back region was shaved, and then the spinal plate was exposed at L4 to S2 levels. After removing the ligamentous section between L4 and L5, a trapezoidal silicone block (1.00 mm long × 1.3 to 1.2 mm wide × 1.0 mm high) was inserted into the epidural space below the L5 and L6 spinal plates without damaging the dural sac. At this time, a Sham group was a group that was subjected to only posterior […] on the animal without inserting a silicone block.
To be used as a peripheral nerve injury animal model, a sciatic nerve injury (SNI) model was prepared (FIG. 1C). Specifically, 200 to 220 g of male adult Sprague-Dawley rats were anesthetized by intraperitoneal injection of chloral hydrate (500 mg/kg), and then three terminal branches (tibial, common peroneal, and sural nerves) of the right sciatic nerve were approached, and the tibia nerve and the peroneal nerve were tightly ligated with 4-0 silk, and neurectomy was performed at a distal 3 mm position of the ligation site. At this time, a Sham group was a group that exposed only the sciatic nerve without damage.
In order to confirm a neuropathic pain inhibitory effect of YJ102 (Chemical Formula 1), a compound of the present disclosure, in the three nerve injury animal models prepared in Example 1 above, rats having pain on week 3 (SNI model) or week 4 (SCI model and LSS model) after surgery were selected and administered orally (p.o.) at 10 mg/kg or 20 mg/kg of YJ102 dissolved in a solution of DMSO, methyl pyrrolidinone, and water (1 : 1.5 : 1), or intraperitoneally injected (i.p. injection) at 1, 2, or 5 mg/kg of YJ102. In a positive control group, gabapentin or pregabalin dissolved in saline was intraperitoneally injected at a concentration of 5 mg/kg, and in a Vehicle group, the same amount of a solution of DMSO, methyl pyrrolidinone, and water was administered. Thereafter, in order to measure mechanical allodynia, the rats were located at the bottom of a transparent plastic box (10 cm × 10 cm) on top of a wire mesh (3 mm × 3 mm) and subjected to an adaptation period for approximately 20 minutes. Von-Frey filaments were applied to the soles of both paws and used with stiff nylon von-Frey monofilament series ([…], Stoelting, WoodDale, IL, USA; equivalent in grams to 0.4, 0.6, 1.0, 2.0, 4.0, 6.0, 8.0 and 15.0) with logarithmic increases in tactile (mechanical) sensitivity. […]

[2] = Observation of sedation as a side effect at high doses; type: in vivo, rats

Row | Compound | analgesic effect (mechanical allodynia) [1] | sedation as a side effect ([2]; 50 mg/kg) | sedation as a side effect ([2]; 20 mg/kg)
1 | NCC1(CC(=O)O)CCCCC1 [gabapentin, reference compound] | significant analgesic effect | observed | 
2 | CC(C)C[C@H](CN)CC(=O)O [pregabalin, reference compound] | significant analgesic effect |  | observed
